Reference: the NIST ThermoML archive (doi:10.1021/acs.jced.8b00888)
± gives the expanded uncertainty stated by the source.

Legend:
[1] = Molar enthalpy of transition or fusion; details: Crystal; DSC
[2] = Crystal; DTA

## Cc1nc(C)c(C)nc1C [tetramethylpyrazine]
[1]
  Molar enthalpy of transition or fusion: 3.92 ± 0.406 kcal/mol
[2]
  Normal melting temperature: 85.40 ± 1.1 °C
